Patent publication US20210386367A1, “DEVICES AND SYSTEMS FOR GASTROINTESTINAL MICROBIOME DETECTION AND MANIPULATION” (Progenity, Inc., priority 2018, published 2021)
Converted amounts (≈) assume the structure as drawn. Read-outs that look alike come from different tables or passages of the source.

What was measured:
[1] = test system: E. coli (ATCC 25922, ATCC 35218, MMX 1312); assay: Agar dilution MIC (spontaneous mutation study; strain in conditions); assay type: cell-based, Escherichia coli; conditions: Escherichia coli
S. agalactiae = assay: Spontaneous mutation frequency and mutation prevention concentration (MPC); assay type: cell-based; conditions: S. agalactiae ATCC 13813
Text: (§1) As used herein, “spontaneous mutation frequency” refers to the rate at which mutations arise in a bacterium that can lead to resistance to develop to an antimicrobial agent. “Mutation prevention concentration” or “MPC” refers to the lowest concentration of antimicrobial agent above which the selective proliferation of resistant mutants is expected to occur only rarely.

S. pneumonia = assay: as above; assay type: cell-based; conditions: S. pneumoniae ATCC 49619
Text: as §1

[2] = test system: E. coli (ATCC 25922, ATCC 35218, MMX 1312); assay: Spontaneous mutation frequency assay; assay type: cell-based, Escherichia coli
Method: Initial values of the MIC were determined by agar dilution in accordance with guidelines from the Clinical and Laboratory Standards Institute (CLSI; (1) “Methods for Dilution Antimicrobial Susceptibility Tests for Bacteria That Grow Aerobically; Approved Standard; 11th ed.,” CLSI standard M07, 2018; (2) “Methods for Antimicrobial Susceptibility Testing of Anaerobic Bacteria; Approved Standard—Eighth Edition,” CLSI document M11-A8, 2012.).
The agar plates were prepared by mixing a ratio of 1.0 mL of concentrated drug to 49.0 mL of the appropriate molten (47° C.) agar; the drug-supplemented agar was mixed, poured into 15-by-150 mm petri dishes and allowed to solidify and dry at room temperature prior to inoculation. […] Each plate was allowed to cool at room temperature for at least 1 hr.
The isolates were streaked onto the appropriate agar medium and incubated for 20 hr (aerobes) or 48 hr (Bacteroides under anaerobic conditions). Using a sterile swab, several well-isolated colonies were removed and resuspended in sterile saline at a heavy cell density. Each plate was inoculated with 0.5 mL of the cell suspension (each test concentration was inoculated in duplicate). The target inoculum for each spontaneous mutation plate was 10^9-10 CFU. In addition, a portion of the inoculum from each isolate was enumerated by making dilutions, spreading on agar and counting colonies.
Once the inoculum was absorbed into the agar, the plates were incubated at 35° C. Aerobes were examined at 24 and 48 hr, and resulting colonies were counted. Bacteroides were incubated anaerobically for 48-72 hr in the anaerobe chamber and colonies were counted.
Colony counts from plates used to enumerate the initial inoculum density and from the resulting spontaneous mutation frequency test plates were determined. The inoculum size was calculated as CFU inoculated per plate. The spontaneous mutation frequency was calculated using the counts from duplicate spontaneous mutation assay test plates as follows:
If there were no colonies on the antibiotic selection plates, the spontaneous mutation frequency was reported as less than the frequency observed with one colony to indicate that the spontaneous mutation frequency was less than the limit of detection (one CFU). […] The mutation prevention concentration (MPC) was reported as the lowest concentration for which no mutants were selected.

B. ovatus MMX 3503 = assay: Broth microdilution MIC (time-kill study); assay type: cell-based, Bacteroides ovatus
Clostridium spp. = assay: Agar dilution MIC, 10 clinical isolates; assay type: cell-based
[3] = test system: Streptococcus spp. clinical isolates; assay: MIC distribution against clinical isolates; assay type: cell-based; conditions: 54 Streptococcus spp. isolates
Text: (n=19 S. pyogenes, n=20 S. agalactiae and n=20 Viridans group Streptococcus) clinical isolates (μg/mL).
As used herein, “minimum inhibitory concentration” or “MIC” refers to the lowest concentration of an antimicrobial agent, for example, an antimicrobial agent as described herein, required to inhibit the growth of an organism. […] “MIC90” represents the MIC value at which ≥90% of the strains within a test population are inhibited; the 90th percentile.
Many susceptibility testing methods are known in the art and can be used as described herein (see, e.g., Jorgensen and Ferraro (2009) Clinical Infectious Diseases 49:1749-1755; and Maurer et al. (2017) Infectious Disease Reports 9:6839; the entire contents of each of the foregoing are incorporated herein by reference). For example, antimicrobial susceptibility can be determined using conventional culture based methods such as the broth or agar dilution test. In these dilution tests, the bacterial isolate of interest is inoculated onto different media that include serial dilutions of an antimicrobial agent, and incubated under appropriate conditions (e.g., overnight at 37° C.) to allow for growth to occur. Following the incubation period, the media is examined to determine bacterial growth. The lowest concentration of antibiotic that prevents growth represents the minimal inhibitory concentration (MIC). Broth dilution tests can be miniaturized and mechanized allowing for reproducibility and high throughput.

[4] = test system: Enterococcus faecalis clinical isolates; assay: MIC distribution against clinical isolates; assay type: cell-based; conditions: 50 E. faecalis isolates
[5] = test system: Staphylococcus aureus clinical isolates; assay: MIC distribution against clinical isolates; assay type: cell-based; conditions: 50 S. aureus isolates
[6] = ceftriaxone selection 8X MIC, 0.5 μg/mL
[7] = mutant prevention concentration
[8] = 10 Clostridium spp. clinical isolates

Q: `CO/N=C(\C(=O)N[C@@H]1C(=O)N2C(C(=O)O)=C(CSc3nc(=O)c(=O)[nH]n3C)CS[C@H]12)c1csc(N)n1` [ceftriaxone] was tested. Which MIC ([1]; read-out: Agar MIC, E. coli ATCC 25922) did it give?
A: Its MIC is 0.06 µg/mL (≈ 0.108 µM).

Q: What about the MIC ([1]; read-out: Agar MIC, E. coli ATCC 35218) of the same compound?
A: The MIC was 0.03 µg/mL (≈ 0.0541 µM).

Q: And the MIC ([1]; read-out: Agar MIC, E. coli MMX 1312)?
A: The MIC was 4 µg/mL (≈ 7.21 µM).

Q: And the MIC ([1]; read-out: MIC value (agar dilution), E. coli MMX 1312)?
A: The MIC was 4 µg/mL (≈ 7.21 µM).

Q: And the MIC ([1]; read-out: MIC values (agar dilution), E. coli excluding E. coli MMX 1312 (stated jointly with Streptococcus spp.))?
A: The MIC was 0.03 to 0.06 µg/mL (≈ 0.0541 to 0.108 µM).

Q: What about the “Average Count” value (S. agalactiae; [6]) of the same compound?
A: Its value is 0 CFU.

Q: And the “Count 1” value (S. agalactiae; [6])?
A: Its value is 0 CFU.

Q: And the “Count 2” value (S. agalactiae; [6])?
A: Its value is 0 CFU.

Q: What about the “Spontaneous Mutation Frequency” value (S. agalactiae; [6]) of the same compound?
A: The value was ≤1.73 × 10^−10.

Q: What about the MPC (S. agalactiae; [7]) of the same compound?
A: The MPC was 0.12 µg/mL.

Q: And the “Average Count” value (S. pneumonia; [6])?
A: Its value is 0 CFU.

Q: And the “Count 1” value (S. pneumonia; [6])?
A: The value was 0 CFU.

Q: And the “Count 2” value (S. pneumonia; [6])?
A: Its value is 0 CFU.

Q: What about the “Spontaneous Mutation Frequency” value (S. pneumonia; [6]) of the same compound?
A: The value was ≤9.52 × 10^−10.

Q: What about the MPC (S. pneumonia; [7]) of the same compound?
A: Its MPC is 0.25 µg/mL.

Q: And the mutation rate ([2]; E. coli MMX 1312)?
A: Its mutation rate is “indeterminate”.

Q: What about the Spontaneous Mutation Frequency ([2]; selection at 4× and 8× MIC, meropenem/ceftriaxone: isolates other than MMX 1312) of the same compound?
A: Its Spontaneous Mutation Frequency is ≤ 7.41×10^−9.

Q: And the MIC (B. ovatus MMX 3503; Bacteroides ovatus, MMX3503, B. ovatus MMX 3504 (so in the source))?
A: Its MIC is greater than 128 µg/mL.

Q: And the MIC (B. ovatus MMX 3503; Bacteroides ovatus, MMX3503, broth microdilution)?
A: The MIC was greater than 128 µg/mL.

Q: What about the MIC (B. ovatus MMX 3503; broth microdilution) of the same compound?
A: Its MIC is 128 µg/mL (≈ 231 µM).

Q: And the isolates susceptible (Clostridium spp.)?
A: The isolates susceptible was “all the isolates were susceptible”.

Q: And the “% S” value (Clostridium spp.; [8])?
A: The value was 100%.

Q: What about the MIC50 (Clostridium spp.; [8]) of the same compound?
A: Its MIC50 is 8 µg/mL (≈ 14.4 µM).

Q: And the MIC90 (Clostridium spp.; [8])?
A: The MIC90 was 16 µg/mL (≈ 28.9 µM).

Q: And the MIC range (Clostridium spp.; [8])?
A: The MIC range was 0.5 to 16 µg/mL.

Q: What about the MIC50 (Clostridium spp.; Clostridium) of the same compound?
A: Its MIC50 is 8 µg/mL (≈ 14.4 µM).

Q: What about the MIC90 (Clostridium spp.; Clostridium) of the same compound?
A: Its MIC90 is 16 µg/mL (≈ 28.9 µM).

Q: And the Mode (Clostridium spp.; modal MIC, 10 Clostridium spp. clinical isolates)?
A: Its Mode is 16 µg/mL.

Q: And the “Cumulative percentage of isolates inhibited at MIC” value ([3]; MIC 0.008 μg/mL)?
A: The value was 1.9%.

Q: And the “Number of test isolates at MIC” value ([3]; MIC 0.008 μg/mL)?
A: Its value is 1.

Q: What about the “Cumulative percentage of isolates inhibited at MIC” value ([3]; MIC 0.015 μg/mL) of the same compound?
A: The value was 35.2%.

Q: And the “Number of test isolates at MIC” value ([3]; MIC 0.015 μg/mL)?
A: The value was 18.

Q: What about the “Cumulative percentage of isolates inhibited at MIC” value ([3]; MIC 0.03 μg/mL) of the same compound?
A: Its value is 51.9%.

Q: And the “Number of test isolates at MIC” value ([3]; MIC 0.03 μg/mL)?
A: Its value is 9.

Q: What about the “Cumulative percentage of isolates inhibited at MIC” value ([3]; MIC 0.06 μg/mL) of the same compound?
A: Its value is 87.0%.

Q: What about the “Number of test isolates at MIC” value ([3]; MIC 0.06 μg/mL) of the same compound?
A: Its value is 19.

Q: What about the “Cumulative percentage of isolates inhibited at MIC” value ([3]; MIC 0.5 μg/mL) of the same compound?
A: The value was 98.1%.

Q: And the “Number of test isolates at MIC” value ([3]; MIC 0.5 μg/mL)?
A: Its value is 1.

Q: And the “Cumulative percentage of isolates inhibited at MIC” value ([3]; MIC 1 μg/mL)?
A: The value was 100.0%.

Q: And the “Number of test isolates at MIC” value ([3]; MIC 1 μg/mL)?
A: The value was 1.

Q: And the “Cumulative percentage of isolates inhibited at MIC” value ([4]; MIC 1 μg/mL)?
A: The value was 2.0%.

Q: What about the “Number of test isolates at MIC” value ([4]; MIC 1 μg/mL) of the same compound?
A: The value was 1.

Q: And the “Cumulative percentage of isolates inhibited at MIC” value ([4]; MIC 16 μg/mL)?
A: Its value is 4.0%.

Q: What about the “Number of test isolates at MIC” value ([4]; MIC 16 μg/mL) of the same compound?
A: Its value is 1.

Q: What about the “Cumulative percentage of isolates inhibited at MIC” value ([4]; MIC 64 μg/mL) of the same compound?
A: The value was 10.0%.

Q: What about the “Number of test isolates at MIC” value ([4]; MIC 64 μg/mL) of the same compound?
A: Its value is 3.

Q: What about the “Cumulative percentage of isolates inhibited at MIC” value ([4]; MIC >64 μg/mL) of the same compound?
A: Its value is 100.0%.

Q: And the “Number of test isolates at MIC” value ([4]; MIC >64 μg/mL)?
A: Its value is 45.

Q: What about the “Number of test isolates at MIC” value ([5]; MIC 0.008 μg/mL) of the same compound?
A: Its value is 0.

Q: What about the “Cumulative percentage of isolates inhibited at MIC” value ([5]; MIC 2 μg/mL) of the same compound?
A: The value was 6.0%.

Q: And the “Number of test isolates at MIC” value ([5]; MIC 2 μg/mL)?
A: The value was 3.

Q: And the “Cumulative percentage of isolates inhibited at MIC” value ([5]; MIC 4 μg/mL)?
A: The value was 38.0%.

Q: What about the “Number of test isolates at MIC” value ([5]; MIC 4 μg/mL) of the same compound?
A: The value was 16.

Q: And the “Cumulative percentage of isolates inhibited at MIC” value ([5]; MIC 8 μg/mL)?
A: The value was 44.0%.

Q: What about the “Number of test isolates at MIC” value ([5]; MIC 8 μg/mL) of the same compound?
A: Its value is 3.

Q: What about the “Cumulative percentage of isolates inhibited at MIC” value ([5]; MIC 32 μg/mL) of the same compound?
A: The value was 52.0%.

Q: And the “Number of test isolates at MIC” value ([5]; MIC 32 μg/mL)?
A: Its value is 4.

Q: And the “Cumulative percentage of isolates inhibited at MIC” value ([5]; MIC 64 μg/mL)?
A: The value was 56.0%.

Q: What about the “Number of test isolates at MIC” value ([5]; MIC 64 μg/mL) of the same compound?
A: The value was 2.

Q: What about the “Number of test isolates at MIC” value ([5]; MIC >16 μg/mL) of the same compound?
A: Its value is 2.

Q: What about the “Cumulative percentage of isolates inhibited at MIC” value ([5]; MIC >64 μg/mL) of the same compound?
A: Its value is 100.0%.

Q: What about the “Number of test isolates at MIC” value ([5]; MIC >64 μg/mL) of the same compound?
A: The value was 22.
